Data on 6 compounds can be found in patent US9637787B2, “Culture based screening assay and methods of use thereof to identify agents which modulate tumor development, invasion and differentiation” (The Trustees of the University of Pennsylvania, priority 2007, dated 2017).

In one experiment the test system is Met. Nature of the experiment: Met phosphorylation in EPC-hTERT-EGFR-p53^R175H cells. The class given is cell-based, human. The conditions noted are these: data not shown. The procedure:
(§1) For Western blot analysis, cells were lysed in lysis buffer (10 mM Tris-HCl, pH 7.4, 150 mM NaCl, 1% Nonidet P-40, 0.1% sodium deoxycholate, 0.1% SDS, 1 mM EDTA, 2 mM sodium orthovanadate and a protease inhibitor tablet, Roche Molecular Biochemicals, Indianapolis, Ind.). Protein concentration was determined by the Bio-Rad protein assay (Bio-Rad, Hercules, Calif.). 15 μg of protein were run on a 4-12% SDS-PAGE gel (Invitrogen™) and transferred to a polyvinylidene difluoride membrane (Immobilon-P®, Millipore, Bedford, Mass.). Membranes were blocked in 5% nonfat milk (Bio-Rad) in TBS-T (10 mM Tris, 150 mM NaCl, pH 8.0 and 0.1% Tween® 20) for 1 h at room temperature. Membranes were then probed with primary antibody diluted in 5% milk in TBS-T overnight at 4° C., washed with TBS-T and incubated with anti-mouse or anti-rabbit horseradish peroxidase-conjugated secondary antibodies (GE Biotech, 1:3000 in TBS-T) for 1 h at room temperature and washed in TBS-T. The signal was visualized using an enhanced chemiluminescence solution (ECL Plus, Amersham™ Pharmacia Biotech) and exposed to Blue Lite Autorad film (ISC-BioExpress, Kaysville, Utah). To confirm secreted periostin expression, conditioned media was collected and protein concentration was determined by Bio-Rad protein assay (Bio-Rad) and Western blot analysis was performed as described above.

The test system of a further experiment is periostin. Nature of the experiment: Western blot of periostin expression in cell lysates. In kind it is cell-based, human. The conditions noted are these: EPC2-hTERT-EGFR-p53^R175H cells, 24 h treatment; EGF 10 ng/μl, AG1478 1 μM, 5-iminodaunorubicin 3 μM. The protocol:
FIG. 24: Periostin expression is dependent upon EGFR signaling and mutant p53 activation (A) Western blot analysis of periostin (90 kDa) in EPC2-hTERT-EGFR-p53^R175H, EPC2-hTERT-puro-neo, EPC2-hTERT-EGFR-neo and EPC2-hTERT-neo-p53^R175H cells. (B) Western blot analysis of periostin expression in EPC2-hTERT-EGFR-p53^R175H cell lysates after 24 h treatment with EGF (10 ng/μl), EGFR inhibitor AG1478 (1 μM) and 5-iminodaunorubicin (3 μM). Immunoblotting for total EGFR and phosphorylated EGFR to confirm inhibition of EGFR as well as p21 to indicate restoration of wildtype p53 signaling. β-actin was used as a loading control. Densitometry ratios of periostin/β-actin were calculated and recorded.
as §1

In the next experiment the target is T1, MMP-1 (Homo sapiens, UniProt P03956).
T1 sequence (P03956 100-469): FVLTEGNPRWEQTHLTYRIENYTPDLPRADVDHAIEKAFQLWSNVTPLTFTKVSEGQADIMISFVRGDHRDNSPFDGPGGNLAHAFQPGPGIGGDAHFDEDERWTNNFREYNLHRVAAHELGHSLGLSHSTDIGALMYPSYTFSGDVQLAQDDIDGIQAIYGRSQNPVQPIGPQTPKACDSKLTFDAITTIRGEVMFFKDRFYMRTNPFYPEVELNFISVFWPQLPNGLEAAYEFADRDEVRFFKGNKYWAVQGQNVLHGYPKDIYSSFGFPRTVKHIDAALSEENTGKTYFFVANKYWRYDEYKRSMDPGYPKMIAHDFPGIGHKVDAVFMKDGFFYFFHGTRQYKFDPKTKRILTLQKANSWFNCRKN
The settings on record: cited from earlier work.

The subject of experiment [1] is EPC-hTERT-EGFR-p53^R175H cells. Nature of the experiment: matrix invasion in 3D organotypic culture above FEF3 fetal esophageal fibroblast matrices. In kind it is cell-based, human. The conditions noted are these: 100 nM. The procedure:
(§2) (A) Fluorescence measurements representing invading cells on the bottom filters of a Matrigel®-coated Boyden chamber where HGF was added as the chemoattractant of EPC-hTERT-EGFR-p53^R175H cells seeded atop the filter. (B) Level of secreted HGF in conditioned media from FEF3 fibroblasts±HGF siRNA set up in organotypic culture and detected by ELISA. (C) H&E sections of organotypic cultures of FEF3 fibroblasts±HGF siRNA seeded into the matrix with EPC-hTERT-EGFR-p53^R175H grown above (scale bar=100 μm). (D) Quantification of invasion in entire organotypic culture imaged in (C). Error bars represent ±SEM and * indicates p values ≦0.05 when compared to the control.
(A) Western blot of EPC-hTERT-EGFR-p53^R175HshMet or EPC-hTERT-EGFR-p53^R175H shScramble cells (two independent lines of each genotype) to determine extent of Met knockdown of total protein and activation state. (B) H&E sections of organotypic culture of EPC-hTERT-EGFR-p53^R175H-shMet or EPC-hTERT-EGFRp53^R175H-shScramble cells seeded above matrices containing FEF3 fetal esophageal fibroblasts. (C) H&E sections of organotypic cultures of EPC-hTERT-EGFR-p53^R175H cells seeded above FEF3 matrices treated with DMSO vehicle (days 7-15) or 100 nM PHA665752 (days 7-15 or day 11-15) as indicated. […]

Experiment [2] relates to EPC-hTERT-EGFR-p53^R175H cells. As to the kind of experiment: Matrigel-coated Boyden chamber invasion assay with chemoattractant. The class given is cell-based, human. The conditions noted are these: HGF added as chemoattractant. The procedure: as §2
For migration assays, Boyden chambers (8 μm pore size, FluoroBlok-HTS inserts, BD Biosciences) were used. For invasion assays, insert-plates (8 μm pore size, FluoroBlock, 24 well insert) coated with BD Matrigel® matrix were used. Inserts were placed in a 24-well plate containing Full KSFM medium with serum to stimulate cell migration and invasion. 5×10^4 cells in serum-free medium were placed in each insert. Twenty-four hours later, migrating or invading cells were labeled with 4 μg/ml Calcein AM dye (Invitrogen™) in HANKS buffer for 1 hour. The labeled cells were then read on a Synergy HT multi-detection microplate reader (BIOTEK®, Woburn, Mass.) at 485 nm excitation and 528 nm detection. […]

pIC50: −log10 of the molar value.

As for `COc1cc2ncnc(Nc3cccc(Cl)c3)c2cc1OC` [AG1478], the Met phosphorylation result with Met was “nor was Met phosphorylation inhibited”. Moreover, the periostin protein expression result with periostin was “decreased”. The term pIC50 denotes the negative decadic logarithm of the IC50, by convention in mol/L. As to `CCN(CC)Cc1cc(C)c(N(Cc2ccccc2)S(=O)(=O)c2ccc(OC)cc2)c(C(=O)NO)c1` [MMP-9 inhibitor], at MMP-1, the pIC50 is 5.98.

Take `Cc1[nH]c(/C=C2\C(=O)Nc3ccc(S(=O)(=O)Cc4c(Cl)cccc4Cl)cc32)c(C)c1C(=O)N1CCC[C@@H]1CN1CCCC1` [PHA665752]: the “invasion of EPC-hTERT-EGFR-p53^R175H cells in organotypic culture” value in experiment [1] (treated for seven days following epithelial cell seeding (days 7-15)) and in experiment [1] (treated for the final four days when invasion occurs (day 11-15)) was “inhibited invasion” each time. With “EGF: epidermal growth factor used to stimulate EGFR”, in the experiment with periostin, the periostin protein expression entry is “increased periostin protein expression”.

Turning to “HGF: Recombinant human HGF purchased from R&D Systems”, in experiment [2], the “levels of invading cells” value is recorded as “significantly increased levels of invading”. Consider `COc1cccc2c1C(=N)c1c(O)c3c(c(O)c1C2=O)C[C@@](O)(C(C)=O)C[C@@H]3O[C@H]1C[C@H](N)[C@H](O)[C@H](C)O1` [5-iminodaunorubicin], for which the periostin protein expression result in the experiment on periostin was “decreased”.
